This is an account of results in US20250206825A1, “COMPOSITION FOR PREVENTING OR TREATING MYOCARDITIS, COMPRISING VLA-4 INHIBITOR” (OSAKA UNIVERSITY, priority 2022, published 2025).

For assay [1], the system named is MRL-Pdcd1^−/− mice. Put plainly: AJM300 mixed diet in myocarditis model (survival, echocardiography). Type of assay: in vivo, mouse. On the procedure: […] MRL-Pdcd1^−/− mice were divided into two groups: AJM300 (−) group (n=13) not to be administered with the AJM300 and AJM300 (+) group (n=12) to be administered with the AJM300.
The AJM300 group (+) was administered with a mixed diet containing 1% of AJM300 from 2 weeks of age until death.
At 28 days of age, 9 mice in the AJM300 (−) group and 10 mice in the AJM300 (+) group were evaluated for the cardiac function by the echocardiography and then euthanized to collect heart and blood samples.

The subject of assay [2] is Vcam-1. The experiment in a line: Induction of Vcam-1 by TNFα in cardiac fibroblasts (Western blotting). Type of assay: cell-based, rat. The following applies: 12 hours and 24 hours after addition of TNFα versus 0 hour, TNFα 5 to 15 ng/ml. On the procedure: (§1) For the cardiac fibroblasts, fibroblasts isolated after cell dispersion of a heart harvested from a neonatal rat with Collagenase type 2 (Worthington Biochemical Corporation, LS004176) were cultured in a 96-well plate. For splenic monocytes, a spleen was harvested from a wild-type mouse and homogenized, and then the monocyte fraction was collected by specific gravity separation using Optiprep (Serumwerk Bernburg, 1893). For the adhesion experiment, the cardiac fibroblasts were cultured in the 96-well plate for 48 hours, and then medium was replaced with TNFα+/− and cultured for another 24 hours. The splenic monocytes subjected to fluorescent staining (Hoechst 33342 (DOJINDO LABORATORIES, 341-07901) or Cytored (DOJINDO LABORATORIES, 342-08531)) were added and incubated at 37° C. for 30 min. After washing 6 times with PBS (−) to remove non-adherent monocytes, and then adherent monocytes were counted on In Cell Analyzer 6000 (GE Healthcare Life Sciences).
(§2) The TNFα (Peprotech, 300-01A) was added to the wells at a final concentration of 5 to 15 ng/ml.
Induction of the Vcam-1 by the TNFα was determined by Western blotting. Anti-Vcam1 antibody EPR5047 (Abcam, ab134047) was used as a primary antibody for the Western blotting. An HRP-conjugated anti-Rabbit antibody was used for detection, and Chemi-Lumi One L (Nacalai tesque, 07880-70) was used as a luminescence reagent. […]
A general note: In western blotting, separated proteins are transferred to a membrane and probed.

The test system of assay [3] is cardiac fibroblasts and splenic monocytes. Put plainly: Adhesion experiment of monocytes with cardiac fibroblasts in vitro (TNFα stimulation). Type of assay: cell-based, neonatal rat (fibroblasts), mouse (monocytes). Conditions: stimulation with TNFα for 24 hours; monocytes incubated 30 min at 37° C.; In Cell Analyzer 6000. Here is the method:
as §1, §2

Where [4] appears, read: 1% AJM300 mixed diet, 28 days of age, versus AJM300 (−) group, t-test p=0.0231.

On to `COC(=O)[C@H](Cc1ccc(-n2c(=O)c3cc(N(C)C)ccc3n(C)c2=O)cc1)NC(=O)c1c(Cl)cccc1Cl` [AJM300, carotegrast methyl], for which, in assay [1] (setting [4]), the “heart rate (echocardiography)” value is “significantly ameliorated bradycardia” and the “left ventricular contractile performance: % Fractional Shortening” value is on record as “significantly improved left ventricular contractile performance”. Further, in assay [1] (mixed diet containing 1% of AJM300 from 2 weeks of age until death, Log-rank test p=0.0022), the “survival time (Kaplan-Meier) versus AJM300 (−) group” value was “significantly prolonged”.

With TNFα, in assay [2], the “expression of the Vcam-1 (Western blotting)” value is reported as “increased more”. For the same compound, in assay [3], the “adhesion between the cardiac fibroblasts and the monocytes” value was “strengthened”.
